Entries after “also recorded” stand apart in the source; their conditions may differ. Read-outs that look alike come from different tables or passages of the source. Marks after values point to notes of the source that are not given here.
How the values were obtained:
[1] = LC-MS/MS analysis of forensic clinical samples (urine, serum); type: in vivo; details: human forensic clinical sample; for Concentration in serum: Patient 002, serum (text: blood); for Concentration in urine: Patient 002, urine
From the text: For human studies, ToxBox® analytical test kits were provided by PinPoint Testing, LLC (Little Rock, AR, United States) to streamline sample preparation and testing procedures for SCBs, confounding drugs of abuse and other non-specified NPSs. ToxBox® contained NIST-traceable, certified reference material for all standards and isotopically-labeled internal standards along with ISOLUTE® SLE+ 96-well plates manufactured by Biotage (Charlotte, NC, United States). This newly developed kit identifies not only novel SCBs and associated metabolites, but also over 200 drugs and other NPSs that often confound such analytical tests. Optima-grade formic acid, acetonitrile, and methanol were purchased from Fisher Scientific (Fair Lawn, NJ, United States). Deionized water was purified to 18.2 MΩ⋅cm resistivity using the equivalent of a Millipore laboratory water purification system. All other chemicals and supplies were provided by Cerilliant (Round Rock, TX, United States), Cayman Chemical Company (Ann Arbor, Michigan, United States), Lipomed (Cambridge, MA), Biotage (Charlotte, NC, United States) or HemoStat Laboratories (Dixon, CA, United States). Blank defibrinated sheep blood or blank human blood void of drug contamination was used for all studies.
Supported liquid extraction (SLE) procedures were optimized for 96-wellplate processing on a PerkinElmer Zephyr G3 SPE Workstation (Waltham, MA, United States). Sample extracts were analyzed using an Agilent 1260 quaternary liquid chromatography system (Santa Clara, CA, United States) coupled to an Agilent 6420 tandem mass spectrometer (LC-MS/MS). Instrument control and data acquisition relied on MassHunter LC/MS Data Acquisition (VER B.08.00). Data analysis was performed using MassHunter Quantitative Analysis (VER B.07.01 SP2).
Use of this material was approved by the Institutional Review Board of the University of Arkansas for Medical Sciences (Little Rock, AR, United States) (IRB #217584).
All blood calibration standards, QC material, and unknown samples were processed identically by mixing 0.25 ml of blank blood or unknown specimen in appropriate wells at 900 rpm for 15 min, pretreating with 0.25 mL of 0.5 M ammonium hydroxide, and then mixing for another 15 min at 900 rpm. Samples were then loaded, under gentle vacuum or positive pressure, onto a 400 mg ISOLUTE® SLE+ 96-wellplate. Samples were allowed to equilibrate for 5 min before extracting under gravity with two fractions of 900 μL of ethyl acetate. All sample extracts were evaporated to dryness under a gentle flow of nitrogen and reconstituted in 100% methanol (100 μl).
Analytical procedures used 5 μl injections on a 2.6 μm Phenomenex Kinetex Phenyl Hexyl (50 × 4.6 mm) LC column heated to 35°C. Analytes were resolved at 0.5 mL/min using mobile phase A (10 mM ammonium formate in ultrapure 18.2 MΩ⋅cm water) and mobile phase B (0.1% formic acid in methanol). Analytes are resolved using a gradient starting at 95% aqueous (Mobile Phase A) and ramping to 0% aqueous over 4 min, and holding constant for 1 min. The gradient returned to initial conditions over 0.1 min and equilibrated for an additional 1.9 min. The total run time including column equilibration period between injections was 7.0 min. Specific mass spectrometer and analyte parameters are provided in Supplementary Tables S2, S3.

[2] = system: human liver microsomes (HLMs); experiment: Glucuronidation of AB-PINACA and JWH-018 metabolites in HLMs; type: in vitro ADME; details: 90 min; for Glucuronide formation (UPLC peak): 50 μM substrate, HLMs with UDPGA, 37°C
Experimental: A typical incubation mixture (30 μl of total volume) contained 100 mM Tris-HCl (pH 7.4), 5 mM MgCl2, 3 mM UDPGA, 80 μg/ml alamethicin, 50 μg HLMs, 5 mM saccharolactone, and 50 μM 4OH- or 5OH-AB-PINACA. […] After incubation at 37°C for 90 min, reactions were terminated by the addition of 30 μl cold ethanol. Following removal of the protein by centrifugation at 12,000 × g for 10 min, a 5-μl portion of the sample was subjected to UPLC. All incubations were performed in triplicate.
Parent compounds and glucuronidated metabolites were identified by the ACQUITY UPLC System with a UV detector (Milford, MA, United States). […] The column was re-equilibrated at initial conditions for 2.5 min between runs. The elution was monitored at 300 nm. The retention times of 4OH-AB-PINACA, 5OH-AB-PINACA, 4OH-AB-PINACA glucuronide, and JWH-018-M2 were 3.989, 3.994, 3.646, and 5.391 min.
FIGURE 4 Glucuronidation of 4OH- and 5OH-AB-PINACA in human liver microsomes (HLMs). 4OH-AB-PINACA (A) and 5OH-AB-PINACA (B) were incubated for 90 min with HLMs in the presence or absence of UDPGA. The terminated reaction mixtures were subjected to the UPLC analysis and the eluent was monitor with a UV detector at 300 nm and chromatograms presented. (C) The peak area of the glucuronide was estimated from the triplicate determinations. The data are presented as mean value ± SD. ND, not detected. (D) Comparison of glucuronidation of JWH-018-M2 and 4OH-AB-PINACA with HLMs. JWH-018-M2 and 4OH-AB-PINACA (5 μM) were incubated for 90 min with HLMs in the presence or absence of UDPGA. The terminated reaction mixtures were subjected to the UPLC analysis and the eluent was monitor with a UV detector at 300 nm. The remaining amount of the substrates was quantified by using standard curves of JWH-018-M2 and 4OH-AB-PINACA. The data was shown as mean value ± SD. ^∗P < 0.001. TEXT PRINTED IN THE PICTURE: (C) 5OH-AB-PINACA: Peak area (μV*sec): ND

hCB1Rs [3] = molecular target: T1, hCB1Rs (Homo sapiens, UniProt P21554); experiment: biochemical; type: binding; details: for Ki: [^3H]CP-55,940 binding, CHO-hCB1 membranes
T1 construct: host or cells: CHO-K1 (CHO-hCB1)

hCB1Rs [4] = molecular target: T1, hCB1Rs; experiment: biochemical; details: CHO-hCB1 membranes; for Emax: read-out: EMAX, [^35S]GTPγS binding (maximal G-protein activation)
CD1 mice = experiment: Cannabinoid-elicited hypothermia (rectal temperature); type: in vivo; details: for Lowest rectal temperature, hypothermic effect vs vehicle / Lowest rectal temperature, drug alone vs rimonabant pretreatment: P < 0.05; for Lowest rectal temperature, drug alone vs rimonabant pretreatment: rimonabant 10.0 mg/kg 60 min before
Experimental: For in vivo studies, rimonabant was synthesized in the laboratory of Dr. Thomas E. Prisinzano at the University of Kansas School of Pharmacy (Lawrence, KS, United States), and provided to us as a generous gift. AB-PINACA, and its 4OH metabolite were obtained from Cayman Chemical Company (Ann Arbor, MI, United States). All cannabinoids were dissolved in a vehicle consisting of ethanol, emulphor and saline at a ratio of 1:1:18. Injections were administered via the intraperitoneal (IP) route at a constant volume of […]. Rimonabant was administered at a dose of 10 mg/kg, 60 min before injection of AB-PINACA or its 4OH metabolite.
Adult male CD1 mice (Charles River Laboratory, Wilmington, MA, United States) were housed three subjects per cage (15.2 cm × 25.4 cm × 12.7 cm) in a temperature-controlled room in a vivarium accredited by the Association for Assessment and Accreditation of Laboratory Animal Care, and given ad libitum food (Laboratory Rodent Diet no. 5001; PMI Feeds, St. Louis, MO, United States) and water. The vivarium was maintained at 22°C ± 2°C and 45–50% humidity, with lights set to a 12-h light/dark cycle (lights on at 6:00 AM, CST). […] All procedures were carried out in accordance with the Guide for Care and Use of Laboratory Animals as adopted and promulgated by the National Institutes of Health (NIH). The experimental protocol has been approved by the Institutional Animal Care and Use Committee (IACUC) at the University of Arkansas for Medical Sciences (UAMS).
Mice were habituated to handling and weighing prior to initiation of experimental procedures. A digital thermometer (model BAT-12, PhysiTemp, Clifton, NJ, United States) equipped with a Ret-3 mouse probe (model 50314, Stoelting Co., Dale, IL, United States) was lubricated and inserted approximately 2 cm into the rectum. Stable temperatures were obtained within ∼6 s. Rectal temperature data were sampled immediately before injection, and at 10, 30, 60, 120, 240, and 360 min after injection.
Curve-fitting was conducted utilizing GraphPad Prism® v6.0b (GraphPad Software, Inc.; San Diego, CA, United States). Non-linear regression for one-site competition was used to determine the IC50 for competition receptor binding. The Cheng-Prusoff equation ([Cheng and Prusoff, 1973]) was employed to convert the experimental IC50 values obtained from competition receptor binding experiments to Ki values (a quantitative measure of receptor affinity). Curve fitting of concentration-effect curves via non-linear regression was also employed to determine the […] or IC50 (measures of potency) and Emax or Imax (measures of efficacy) for the [^35S]GTPγS and adenylyl cyclase experiments, respectively. All dissociation constants and measurements of potency were converted to pKi, pEC50, or pIC50 values by taking the negative log of each value so that parametric tests could be used for statistical comparisons. A one-way ANOVA, followed by Tukey’s Multiple Comparison post hoc test, was used to determine statistical significance (P < 0.05). For animal studies, temperature data are shown as mean values (±SEM) for groups of subjects at each drug dose and time point. For statistical analyses, only the highest dose of AB-PINACA or its 4OH- metabolite (with and without rimonabant pretreatment) were considered. The lowest temperatures recorded for each subject within each group (regardless of when after drug administration it occurred) were compared to vehicle data using a one-way ANOVA and Tukey’s HSD post hoc test. Significance was judged at P < 0.05.

hCB1Rs [5] = molecular target: T1, hCB1Rs; experiment: cell-based; type: cell-based; details: intact CHO-hCB1 cells, 10 μM forskolin, 15 min
[6] = Ki, 0.2 nM [^3H]CP-55,940, Cheng-Prusoff
[7] = pKi, 0.2 nM [^3H]CP-55,940, mean ± SEM
[8] = mean ± SEM, read-out: pEC50, [^35S]GTPγS binding (converted)
[9] = read-out: EC50, [^35S]GTPγS binding
[10] = read-out: IC50, cAMP accumulation (adenylyl cyclase inhibition)
[11] = read-out: pIC50, cAMP accumulation (converted)

T1 sequence (P21554 whole entry): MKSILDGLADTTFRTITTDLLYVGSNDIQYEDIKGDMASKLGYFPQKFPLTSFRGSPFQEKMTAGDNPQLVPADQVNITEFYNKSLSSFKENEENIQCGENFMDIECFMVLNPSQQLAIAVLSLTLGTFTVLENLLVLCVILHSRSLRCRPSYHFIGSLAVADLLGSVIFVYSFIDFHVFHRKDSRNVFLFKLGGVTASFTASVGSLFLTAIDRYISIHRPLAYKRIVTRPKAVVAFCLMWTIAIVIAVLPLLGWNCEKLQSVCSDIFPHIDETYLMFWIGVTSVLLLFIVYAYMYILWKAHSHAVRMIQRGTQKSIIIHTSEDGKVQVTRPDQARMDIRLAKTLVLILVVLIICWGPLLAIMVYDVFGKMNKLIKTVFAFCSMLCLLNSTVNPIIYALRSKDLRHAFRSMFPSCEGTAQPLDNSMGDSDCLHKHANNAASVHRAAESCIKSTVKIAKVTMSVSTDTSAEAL

`CC(C)(C)[C@H](NC(=O)c1nn(CC2CCCCC2)c2ccccc12)C(N)=O` showed a Concentration in serum [1] of 11.3 ng/mL.

For `CC(C)C(NC(=O)c1nn(CCCCCO)c2ccccc12)C(N)=O` (stereo not drawn) [5OH-AB-PINACA], the “Glucuronide formation (UPLC peak)” value [2] was “no such peak is observed; also recorded: glucuronidation is not involved in the clearance”, the Ki (hCB1Rs [3]; [6]) was 452 nM and the Ki (hCB1Rs [3]; [7]) was 447 nM. It also gave an Emax (hCB1Rs [4]; mean ± SEM) of 100 ± 16.8%, an EC50 (hCB1Rs [4]; [8]) of 2820 nM and an EC50 (hCB1Rs [4]; [9]) of 2740 nM.

`C=C(C)C(C)(C)CC(=O)c1cn(CCCCC(=O)O)c2ccccc12` [UR-144-pentanoic acid degradant] gave a Concentration in serum [1] of 5.4 ng/mL.

In the case of `CCCCCn1nc(C(=O)N[C@H](C(N)=O)C(C)C)c2ccccc21` [AB-PINACA, (S)-N1(1-amino-3-methyl-1-oxobutan-2-yl)-1-pentyl-1H-indazole-3-carbox-amide], the Ki (hCB1Rs [3]; [6]) is reported as 4 nM, the Ki (hCB1Rs [3]; [7]) is reported as 1.78 nM and the “Lowest rectal temperature, hypothermic effect vs vehicle” value (CD1 mice; 10.0 mg/kg i.p.) is reported as “significantly different”. For the same compound, the “Lowest rectal temperature, drug alone vs rimonabant pretreatment” value (CD1 mice; 10.0 mg/kg i.p.) was “significantly different”, the “Effect on rectal temperature” value (CD1 mice; 3.0 and 10.0 mg/kg, i.p.) was “dose- and time-dependent hypothermic effects” and the “Effect on rectal temperature” value (CD1 mice; lowest tested dose (1.0 mg/kg), i.p.) was “prevents the typical injection-elicited increase in rectal temperature”. For the same compound, the “IMAX, cAMP accumulation (maximal adenylyl cyclase inhibition)” value (hCB1Rs [5]) was 72.0 ± 2.1^b %, the IC50 (hCB1Rs [5]; [10]) was 3.9 nM and the IC50 (hCB1Rs [5]; [11]) was 2.24 nM. It also gave a Concentration in serum [1] of 1.2 ng/mL, a Concentration in urine [1] of 0.9 ng/mL and an Emax (hCB1Rs [4]; mean ± SEM) of 71.9 ± 5.8%. The EC50 (hCB1Rs [4]; [8]) was 8.71 nM and the EC50 (hCB1Rs [4]; [9]) was 12.8 nM.

`CC(C)[C@H](NC(=O)c1nn(Cc2ccc(F)cc2)c2ccccc12)C(N)=O` [AB-FUBINACA] showed a Concentration in urine [1] of 1.1 ng/mL.

In the case of `Cc1c(C(=O)NN2CCCCC2)nn(-c2ccc(Cl)cc2Cl)c1-c1ccc(Cl)cc1` [Rimonabant, reference compound], the “Effect on rectal temperature” value (CD1 mice; 10 mg/kg, alone) is reported as “does not alter rectal temperature”.

In the case of `CC(O)CCCn1nc(C(=O)NC(C(N)=O)C(C)C)c2ccccc21` (stereo not drawn) [4OH-AB-PINACA], the “Remaining amount of substrate in the presence vs absence of UDPGA” value ([2]; 5 μM substrate, HLMs, Figure 4D) is reported as “such disappearance of substrate is not observed”, the “Glucuronide formation (UPLC peak)” value [2] is reported as “unique peak is observed; also recorded: slightly glucuronidated” and the “hCB1R affinity relative to the parent compound AB-PINACA (fold less)” value (hCB1Rs [3]; 159 nM vs 4 nM) is reported as “approximately 40 fold”. For the same compound, the Ki (hCB1Rs [3]; [6]) was 159 nM, the Ki (hCB1Rs [3]; [7]) was 151 nM and the “Lowest rectal temperature, hypothermic effect vs vehicle” value (CD1 mice; 100.0 mg/kg i.p.) was “significantly different”. For the same compound, the “Lowest rectal temperature, drug alone vs rimonabant pretreatment” value (CD1 mice; 100.0 mg/kg i.p.) was “significantly different”, the “Dose required for a similar level of hypothermia relative to AB-PINACA” value (CD1 mice; 100 mg/kg vs 10 mg/kg) was roughly 10 fold and the “Effect on rectal temperature” value (CD1 mice; 30.0 and 100.0 mg/kg, i.p.) was “dose- and time-dependent hypothermic effects”. For the same compound, the “IMAX, cAMP accumulation (maximal adenylyl cyclase inhibition)” value (hCB1Rs [5]) was 87.0 ± 2.9^a %, the IC50 (hCB1Rs [5]; [10]) was 141 nM and the IC50 (hCB1Rs [5]; [11]) was 129 nM. For the same compound, the Emax (hCB1Rs [4]; mean ± SEM) was 92.6 ± 13.4%, the EC50 (hCB1Rs [4]; [8]) was 813 nM and the EC50 (hCB1Rs [4]; [9]) was 952 nM.

— PMC6168621 (Frontiers in Pharmacology, 2018)
